This is an account of results in US5319085A, “Quinoline derivative having serotonin-3 receptor antagonizing activity” (priority 1990, dated 1994).

For orientation: Ki means the dissociation constant of the complex between target and ligand, obtained from inhibition or displacement.

The subject of data set [1] is 5HT3 receptor. Kind of data set: 5HT3 receptor binding test, [3H] quipazine, NG108-15 cell membrane fraction. Set-up: species or system rat. The following applies: for Inhibition Rate (%) (Concentration 10^-7 M) / Inhibition Rate (%) (Concentration 10^-8 M): inhibition of 2 nM [3H] quipazine binding; for Ki: [3H] quipazine, Cheng Prusoff equation, 37° C., 60 minutes. Here is the method:
Using rat neuroblastoma-glyoma NG108-15 cell membrane fraction, the binding activities of the test compounds to 5HT3 receptor were examined.
A membrane fraction of NG108-15 cells was prepared according to the method of Neijt et al. [Naunyn-Schmiedeberg's Arch. Parmacol. 337, 493-499 (1988)].
The receptor binding experiment was performed using [^3 H] quipazine [J. Neurochem., 52, 1787 (1989)], a high affinity ligand to 5HT3 receptor.
A membrane fraction obtained from 4×10^5 NG108-15 cells was suspended in 1 ml of 20 mM Tris-hydrochloride buffer (pH 7.5) containing 154 mM sodium chloride. Then, 2 nM [^3 H] quipazine (2519.7 GBq/mmol; Du Pont Co., Ltd.) and various concentrations of the test compound were added to the suspension followed by incubating at 37° C. for 60 minutes. Then, 4 ml of an ice-cooled buffer was added to terminate the reaction and then the mixture was filtered through CF/C glass fiber filter (Whatmann Co., Ltd.). The filter was washed with the buffer, and put in a scintillation vial. Scintisol EX-H (Wako Pure Chemicals, Inc.) was added to the scintillation vial. Radioactivity on the filter was counted in a liquid scintillation counter.
An inhibition rate of the [^3 H] quipazine binding for the test compound was estimated according to the equation; [formula]
Ki values were estimated based on the resultant inhibition rates according to the Cheng Prusoff equation.
In this test, the comparison was made between Compound (I) and Compound C disclosed in Japanese Published Unexamined Patent Application No. 72886/85 as the reference compound.

Data set [2] deals with ddY strain male mice. The data set can be described thus: Acute toxicity, minimum lethal dose. In kind it is in vivo. The following applies: mortality for 7 days. The procedure: The test Compound was orally and intraperitoneally administered to ddY strain male mice weighing 20 to 25 g. MLD (Minimum Lethal Dose) was determined by observing the mortality for 7 days after the administration.

Data set [3] deals with Cisplatin-induced vomiting. Kind of data set: Activity against Cisplatin-induced vomiting. It counts as in vivo, Suncus mirinus. The following applies: for Number of Vomiting (mean ± S.E.M.): 5 to 120 minutes; for Latency (min.) (mean ± S.E.M.): time to first vomiting. The procedure:
Female and male Suncus mirinus animals weighing 23 to 68 g were used, one group consisting of 5 to 10 animals. According to the method of Matsuki et al. (Japan J. Pharmacol., 48, 303 (1988)], the animals were isolated in metal mesh cage (one animal/one cage). One hour after, the test compound or physiological saline (control) was intraperitoneally administered (i.p.) in a volume of 10 ul/g of body weight. Further 30 minutes after administration of the test compound, Cisplatin (20 or 40 mg/kg) was intraperitoneally administered. After administration of Cisplatin, a time period (latency) for the first vomiting and the number of frequencies of vomiting caused in the period of 5 to 120 minutes after administration, were determined. The latency and the number of frequencies in the test compound administered group were compared with those in the control group. The test of significance was performed by Student's t-test.

Setting [4] is: 0.1 mg/kg i.p., Cisplatin 40 mg/kg.
[5] abbreviates: 0.3 mg/kg i.p., Cisplatin 40 mg/kg.
Where [6] appears, read: 1.0 mg/kg i.p., Cisplatin 40 mg/kg.
The mark [7] stands for this setting: 10.0 mg/kg i.p., Cisplatin 40 mg/kg.
The mark [8] stands for this setting: 0.01 mg/kg i.p., Cisplatin 20 mg/kg.
Where [9] appears, read: 0.03 mg/kg i.p., Cisplatin 20 mg/kg.
Setting [10] is: 0.1 mg/kg i.p., Cisplatin 20 mg/kg.
The mark [11] stands for this setting: 0.3 mg/kg i.p., Cisplatin 20 mg/kg.
Where [12] appears, read: 1.0 mg/kg i.p., Cisplatin 20 mg/kg.

SMILES strings stand for the structures. Bounds are passed on as bounds.

Consider `CN1[C@@H]2CC[C@H]1C[C@@H](OC(=O)c1cnc3ccccc3c1O)C2` [5S'a, Endo-(8-methyl-8-azabicyclo[3.2.1]oct-3-yl) 4-hydroxy-3-quinolinecarboxylate], for which the “Inhibition Rate (%) (Concentration 10^-7 M)” value in data set [1] turned out to be 107%. In data set [1], the Ki amounted to 6.1 nM. For the same compound, the “MLD (Minimum Lethal Dose)” value was greater than 300 mg/kg in data set [2] (i.p.) and greater than 100 mg/kg in data set [2] (p.o.). Moreover, the “Number of Vomiting (mean ± S.E.M.)” value in data set [3] (setting [4]) is recorded as 29.6 ± 3.5; in data set [3] (setting [5]) it was 13.2 ± 4.8; in data set [3] (setting [6]), 4.3 ± 2.4; in data set [3] (setting [7]), 7.6 ± 7.6. Also, the “Latency (min.) (mean ± S.E.M.)” value in data set [3] (setting [4]) stood at 41.4 ± 0.7 min; in data set [3] (setting [5]), 69.6 ± 13.4 min; in data set [3] (setting [6]), 103.5 ± 10.3 min; in data set [3] (setting [7]), 105.1 ± 14.9 min.
In the case of `CN1[C@@H]2CCC[C@H]1C[C@@H](OC(=O)c1cnc3ccccc3c1)C2` [CSa, Endo-(9-methyl-9-azabicyclo[3.3.1]non-3-yl) 3-quinolinecarboxylate, reference compound], in data set [1], the “Inhibition Rate (%) (Concentration 10^-7 M)” value is reported as 84%, the “Inhibition Rate (%) (Concentration 10^-8 M)” value worked out at 12% and the inhibition constant Ki was 29 nM.
In the case of `CCCCOc1cc(C(=O)O[C@H]2C[C@H]3CC[C@@H](C2)N3C)c2ccccc2n1` [Compound 1Sa, Endo-(8-methyl-8-azabicyclo[3.2.1]oct-3-yl) 2-n-butoxy-4-quinolinecarboxylate], in data set [1], the “Inhibition Rate (%) (Concentration 10^-7 M)” value is 104%, the “Inhibition Rate (%) (Concentration 10^-8 M)” value came out at 99% and the inhibitory constant (Ki) came to 0.39 nM. Further, the “MLD (Minimum Lethal Dose)” value in data set [2] (i.p.) turned out to be 200 mg/kg. In data set [2] (p.o.), the “MLD (Minimum Lethal Dose)” value worked out at 100 mg/kg.
As for `CCCOc1cc(C(=O)O[C@H]2C[C@H]3CC[C@@H](C2)N3C)c2ccccc2n1` [Compound 2Sa, Endo-(8-methyl-8-azabicyclo[3.2.1]oct-3-yl) 2-n-propoxy-4-quinolinecarboxylate], in data set [1], the “Inhibition Rate (%) (Concentration 10^-7 M)” value is on record as 104%, the “Inhibition Rate (%) (Concentration 10^-8 M)” value stood at 101% and the Ki was 0.32 nM. Further, the “MLD (Minimum Lethal Dose)” value in data set [2] (i.p.) is 100 mg/kg. For the same compound, the “MLD (Minimum Lethal Dose)” value in data set [2] (p.o.) is 100 mg/kg.
In the case of `CC(C)Oc1cc(C(=O)O[C@H]2C[C@H]3CC[C@@H](C2)N3C)c2ccccc2n1` [Compound 3Sa, Endo-(8-methyl-8-azabicyclo[3.2.1]oct-3-yl) 2-isopropoxy-4-quinolinecarboxylate], in data set [1], the “Inhibition Rate (%) (Concentration 10^-7 M)” value came out at 104%; the “Inhibition Rate (%) (Concentration 10^-8 M)” value stood at 101%; the affinity, expressed as Ki, was 0.31 nM. Also, in data set [2] (i.p.), the “MLD (Minimum Lethal Dose)” value turned out to be 200 mg/kg. For the same compound, the “MLD (Minimum Lethal Dose)” value in data set [2] (p.o.) was greater than 100 mg/kg.
Consider `COc1cc(C(=O)O[C@H]2C[C@H]3CC[C@@H](C2)N3C)c2ccccc2n1` [Compound 4Sa, Endo-(8-methyl-8-azabicyclo[3.2.1]oct-3-yl) 2-methoxy-4-quinolinecarboxylate], for which, in data set [1], the “Inhibition Rate (%) (Concentration 10^-7 M)” value came out at 104%, the “Inhibition Rate (%) (Concentration 10^-8 M)” value came to 98% and the affinity corresponds to a Ki of 0.58 nM. Besides, in data set [2] (i.p.), the “MLD (Minimum Lethal Dose)” value is on record as 200 mg/kg. In data set [2] (p.o.), the “MLD (Minimum Lethal Dose)” value turned out to be 50 mg/kg.
With `CN1[C@@H]2CC[C@H]1C[C@@H](NC(=O)c1cnc3ccccc3c1O)C2` [Compound 6Sa, Endo-N-(8-methyl-8-azabicyclo[3.2.1]oct-3-yl)-4-hydroxy-3-quinolinecarboxamide], the “Inhibition Rate (%) (Concentration 10^-7 M)” value in data set [1] came to 101%. For the same compound, the “Inhibition Rate (%) (Concentration 10^-8 M)” value in data set [1] was found to be 89%. In data set [1], this compound gave a Ki of 2.1 nM. The “MLD (Minimum Lethal Dose)” value in data set [2] (i.p.) is listed as greater than 300 mg/kg; in data set [2] (p.o.) it was greater than 100 mg/kg. For the same compound, the “Number of Vomiting (mean ± S.E.M.)” value in data set [3] (setting [8]) stood at 10.0 ± 4.0; in data set [3] (setting [9]), 8.2 ± 1.4; in data set [3] (setting [10]), 7.4 ± 2.6; in data set [3] (setting [11]), 0.0 ± 0; in data set [3] (setting [12]), 0.0 ± 0. The “Latency (min.) (mean ± S.E.M.)” value in data set [3] (setting [8]) stood at 58.2 ± 9.9 min; in data set [3] (setting [9]) it was 52.6 ± 4.2 min; in data set [3] (setting [10]), 85.7 ± 9.7 min; in data set [3] (setting [11]) it was 120.0 ± 0 min; in data set [3] (setting [12]), 120.0 ± 0 min.
Consider `CC(C)COc1cc(C(=O)O[C@H]2C[C@H]3CC[C@@H](C2)N3C)c2ccccc2n1` [Compound 7Sa, Endo-(8-methyl-8-azabicyclo[3.2.1]oct-3-yl) 2-isobutoxy-4-quinolinecarboxylate], for which, in data set [1], the “Inhibition Rate (%) (Concentration 10^-7 M)” value came to 108%, the “Inhibition Rate (%) (Concentration 10^-8 M)” value was 101% and the affinity corresponds to a Ki of 0.44 nM. In data set [2] (i.p.), the “MLD (Minimum Lethal Dose)” value is reported as 300 mg/kg. Moreover, the “MLD (Minimum Lethal Dose)” value in data set [2] (p.o.) was greater than 100 mg/kg.
For `CCCCCOc1cc(C(=O)O[C@H]2C[C@H]3CC[C@@H](C2)N3C)c2ccccc2n1` [Compound 8Sa, Endo-(8-methyl-8-azabicyclo[3.2.1]oct-3-yl) 2-n-pentyloxy-4-quinolinecarboxylate], in data set [1], the “Inhibition Rate (%) (Concentration 10^-7 M)” value was determined as 97%, the “Inhibition Rate (%) (Concentration 10^-8 M)” value came to 94% and the affinity corresponds to a Ki of 0.86 nM. Further, the “MLD (Minimum Lethal Dose)” value in data set [2] (i.p.) is listed as greater than 300 mg/kg. The “MLD (Minimum Lethal Dose)” value in data set [2] (p.o.) is greater than 100 mg/kg.
Taken in the same sequence, the figures for `CCCCCCOc1cc(C(=O)O[C@H]2C[C@H]3CC[C@@H](C2)N3C)c2ccccc2n1` [Compound 9Sa, Endo-(8-methyl-8-azabicyclo[3.2.1]oct-3-yl) 2-n-hexyloxy-4-quinolinecarboxylate] were 97%, 74%, 3.2 nM, greater than 300 mg/kg and 50 mg/kg.
With `CCOc1cc(C(=O)O[C@H]2C[C@H]3CC[C@@H](C2)N3C)c2ccccc2n1` [Compound 10Sa, Endo-(8-methyl-8-azabicyclo[3.2.1]oct-3-yl) 2-ethoxy-4-quinolinecarboxylate], in data set [1], the “Inhibition Rate (%) (Concentration 10^-7 M)” value is reported as 99%, the “Inhibition Rate (%) (Concentration 10^-8 M)” value amounted to 96% and the Ki is 0.88 nM. Moreover, in data set [2] (i.p.), the “MLD (Minimum Lethal Dose)” value came to 100 mg/kg. Besides, the “MLD (Minimum Lethal Dose)” value in data set [2] (p.o.) was 50 mg/kg.
